Data on 2 substances can be found in patent US20120083522A1, “MODULATION OF INFLAMMATORY RESPONSES BY FACTOR XI” (Isis Pharmaceuitcals, inc., priority 2009, published 2012).

In the oligonucleotide strings, read from the 5' end, every base follows the letter of its sugar. An asterisk marks phosphorothioate; unmarked linkages are phosphodiester. Other units and linkages are bracketed, terminal groups are in braces. A string of capitals states the bases alone. e = 2'-O-(2-methoxyethyl) (MOE); [5mC] = 5-methylcytosine; d = 2'-deoxy (DNA)

The nature of series [1]: Cynomolgus monkeys: hematology assays (Example 29). In kind it is in vivo. The procedure:
Groups, each consisting of two male and three female monkeys, were injected subcutaneously with ISIS 416838, ISIS 416850, ISIS 416858, ISIS 416864, or ISIS 417002 in escalating doses. Antisense oligonucleotide was administered to the monkeys at 5 mg/kg three times per a week for week 1; 5 mg/kg twice per week for weeks 2 and 3; 10 mg/kg three times per week for week 4; 10 mg/kg twice per week for weeks 5 and 6; 25 mg/kg three times per week for week 7; and 25 mg/kg twice per week for weeks 8, 9, 10, 11, and 12. One control group, consisting of two male and three female monkeys, was injected subcutaneously with PBS according to the same dosing regimen. An additional experimental group, consisting of two male and three female monkeys, was injected subcutaneously with ISIS 416850 in a chronic, lower dose regimen. Antisense oligonucleotide was administered to the monkeys at 5 mg/kg three times per week for week 1; 5 mg/kg twice per week for week 2 and 3; 10 mg/kg three times per week for week 4; and 10 mg/kg twice per week for weeks 5 to 12. Body weights were measured weekly. Blood samples were collected 14 days and 5 days before the start of treatment and subsequently once per week for Factor XI protein activity analysis in plasma and measurement of various hematologic factors. On day 85, the monkeys were euthanized by exsanguination while under deep anesthesia, and organs harvested for further analysis.
The ISIS oligonucleotide, ISIS 416850, given with the chronic dose regimen is distinguished from the other oligonucleotides with an asterisk (*).

For another series, the system named is murine Factor XI mRNA. The series can be described thus: Colitis Study B: Factor XI mRNA in the liver. Particulars: DSS-induced colitis, day 7, 20 mg/kg s.c. twice a week for 3 weeks, percent change compared to the PBS control. In kind it is in vivo, Swiss Webb mice. The procedure: In a first group of 8 Swiss Webb mice, 20 mg/kg of ISIS 404071 was injected subcutaneously twice a week for 3 weeks. In a second group of 8 Swiss Webb mice, 20 mg/kg of ISIS 404057 was subcutaneously injected twice a week for 3 weeks. In a third control group of 8 Swiss Webb mice, 20 mg/kg of ISISI 421208 was injected subcutaneously twice a week for 3 weeks. Two control groups of 8 mice each were injected with PBS twice a week for 3 weeks. After the oligonucleotide treatment, 4% DSS in water was administered ad libitum for 6 days to all the experimental groups and one PBS control group.
Mice in all groups were weighed at day 0 and daily after administration of DSS. Mice were sacrificed at the end of the study on day 7 after DSS was administered, their livers and colons were harvested for RNA analysis, and their body weights and colon lengths were measured.
RT-PCR analysis of Factor XI mRNA was performed. As presented in Table 27 and FIG. 10, antisense oligonucleotides targeting Factor XI achieved statistically significant dose-dependent reduction of murine Factor XI over the PBS control in the liver. All the measurements are normalized to cyclophilin.
All the results in Table 27 are expressed as percent change compared to the PBS control.

Series [2] concerns thrombin-antithrombin (TAT) complexes. The series is described as follows: Colitis Study D: TAT levels in colon. The format is in vivo, Swiss Webb mice. The conditions noted are these: for TAT levels in colon: DSS-treated mice. How it is done:
In a first group of 8 Swiss Webb mice, 10 mg/kg of ISIS 404071 was injected subcutaneously twice a week for 3 weeks. In a second group of 8 Swiss Webb mice, 20 mg/kg of ISIS 404057 was subcutaneously injected twice a week for 3 weeks. In a third control group of 8 Swiss Webb mice, 40 mg/kg of ISISI 404057 was injected subcutaneously twice a week for 3 weeks. Two control groups of 8 mice each were injected with PBS twice a week for 3 weeks. After the oligonucleotide treatment, 4% DSS in water was administered ad libitum for 7 days to all the experimental groups and one PBS control group.
Mice with dextran sodium sulfate (DSS)-induced colitis have elevated level of thrombin-antithrombin (TAT) complexes in blood (Anthoni, C. et al., J. Exp. Med. 204: 1595-1601, 2007) that is also observed in patients with ulcerative colitis (Kume, K. et al., Intern Med. 2007. 46: 1323-9). The effect of antisense inhibition of Factor XI on TAT levels in the colon was evaluated (Thrombi-Anti-Thrombin III complex, Siemens Healthcare Diagnostics, Deerfield, Ill.) and the results are presented in Table 30.

The subject of series [3] is DSS-induced colitis model. The series is described as follows: Colitis Study F: body weight, stool scores, colon length and weight. The format is in vivo, Swiss Webb mice. How it is done:
In a first group of 8 Swiss Webb mice, 50 mg/kg of ISIS 404071 was injected subcutaneously twice a week for 3 weeks. Two control groups of 8 mice each were injected with PBS twice a week for 3 weeks. After the oligonucleotide treatment, 4% DSS in water was administered ad libitum for 7 days to the experimental group and one PBS control group. Mice were sacrificed at the end of the study on day 7 after DSS was administered.
Mice in all groups were weighed at day 0 and daily for 7 days after administration of DSS. Mice were sacrificed at the end of the study on day 7 after DSS was administered and their colon lengths and weight were measured as shown in Table 45.

Where [4] appears, read: DSS-treated mice, 50 mg/kg, day 7.

As to “ISIS 416850: gapmer of Table 8 (antisense eT*eG*e[5mC]*eA*e[5mC]*dA*dG*dT*dT*dT*d[5mC]*dT*dG*dG*d[5mC]*eA*eG*eG*e[5mC]*e[5mC])”, the platelet count in series [1] (day 8) came out at 548000 µL⁻¹; in series [1] (day 8, chronic dose regimen (*)) it was 401000 µL⁻¹; in series [1] (day 15) it was 559000 µL⁻¹; in series [1] (day 15, chronic dose regimen (*)) it was 396000 µL⁻¹; in series [1] (day 22), 466000 µL⁻¹; in series [1] (day 22, chronic dose regimen (*)), 347000 µL⁻¹. In addition, the platelet count came out at 475000 µL⁻¹ in series [1] (day 29); 370000 µL⁻¹ in series [1] (day 29, chronic dose regimen (*)); 505000 µL⁻¹ in series [1] (day 36); 379000 µL⁻¹ in series [1] (day 36, chronic dose regimen (*)); 490000 µL⁻¹ in series [1] (day 43); 391000 µL⁻¹ in series [1] (day 43, chronic dose regimen (*)). The platelet count was 487000 µL⁻¹ in series [1] (day 50); 351000 µL⁻¹ in series [1] (day 50, chronic dose regimen (*)); 528000 µL⁻¹ in series [1] (day 57); 496000 µL⁻¹ in series [1] (day 64); 465000 µL⁻¹ in series [1] (day 71); 449000 µL⁻¹ in series [1] (day 78). The platelet count in series [1] (day 85) was found to be 458000 µL⁻¹; in series [1] (day −5) it was 573000 µL⁻¹; in series [1] (day −5, chronic dose regimen (*)), 434000 µL⁻¹; in series [1] (day −14), 528000 µL⁻¹; in series [1] (day −14, chronic dose regimen (*)), 387000 µL⁻¹. The Monocytes entry in series [1] (day 57) is given as “n.d. 3.2%”; in series [1] (day 64), “n.d. 3.5%”; in series [1] (day 71) it was “n.d. 4.7%”; in series [1] (day 78), “n.d. 4.5%”; in series [1] (day 85) it was “n.d. 3.5%”.

As to “TGGTAATCCACTTTCAGAGG (eT*eG*eG*eT*eA*dA*dT*d[5mC]*d[5mC]*dA*d[5mC]*dT*dT*dT*d[5mC]*eA*eG*eA*eG*eG) [ISIS 404071, 5-10-5 MOE gapmer targeting murine Factor XI, target start site 869]”, the “Liver Factor XI mRNA” value with murine Factor XI mRNA is −75%. In series [2] (Colitis Study D), the “TAT levels in the colon (in words)” value was “decreased in a dose-dependent manner”. Besides, the entries for the “TAT levels in colon” value in series [2] (10 mpk), in series [2] (20 mpk) and in series [2] (40 mpk) were 1.79 ng/mg protein, 0.65 ng/mg protein and 0.75 ng/mg protein, respectively. Further, the “body weight (in words)” value in series [3] (Colitis Study F, 50 mg/kg, compared to placebo) was “did not significantly affect body weight”. Moreover, the “Body weight (day 0)” value in series [3] (DSS-treated mice, 50 mg/kg s.c. twice a week for 3 weeks, day 0) came out at 28 grams. Besides, in series [3] (DSS-treated mice, 50 mg/kg s.c. twice a week for 3 weeks, day 7), the “Body weight (day 7)” value is 24.7 grams. Besides, the Stool score came to 0 in series [3] (DSS-treated mice, 50 mg/kg, Day 3); 0.25 in series [3] (DSS-treated mice, 50 mg/kg, Day 4); 1 in series [3] (DSS-treated mice, 50 mg/kg, Day 5); 1 in series [3] (DSS-treated mice, 50 mg/kg, Day 6); 1 in series [3] (DSS-treated mice, 50 mg/kg, Day 7). In addition, the Colon length in series [3] (setting [4]) is on record as 7.8 cm. This substance yielded a Colon weight in series [3] (setting [4]) of 339.3 mg.
